Assay [1] concerns DU-145 prostate cancer cells. Put plainly: SU-ECM invasion assay, DU-145 prostate cancer cells. The class given is cell-based, human. The following applies: DU-145 cells. The protocol:
Adult Strongylocentrotus purpuratus sea urchins were obtained from Pacific BioMarine, and their embryos were cultured to the early pluteus stage in artificial sea water at 15° C. SU-ECM were prepared from them by treatment with nonionic detergent and strerilized by dilution in the appropriate media.
Cells were harvested by rinsing in Hanks' balanced salt solution, followed by brief treatment with 0.25% trypsin, 0.02% EDTA, and pelleting and resuspension in the appropriate medium with or without 5% FCS at a density of about 50,000 cells per ml. […]
(§1) Invasion assays were coded and scored blindly by microscopic examination under phase contrast at 200- and 400-fold magnification. Each cell contacting an SU-ECM was scored for its position relative to the exterior or interior surfaces. […] The minimum viability of the cells in each assay was always ascertained at the time of assay by determining the fraction of spread, adherent cells on the bottom of each well scored.
(§2) An invasion frequency is defined as the fraction of cells in contact with basement membranes which were located in their interiors at the time of assay. […] Invasion frequencies were determined multiple times for each cell type assayed. For each type of cell assayed the mean and standard deviation of the invasion frequencies were calculated. […]

In assay [2] the test system is neonatal, human fibroblasts. Description: SU-ECM basement membrane invasion by fibroblasts. The class given is cell-based. The following applies: with or without serum as stated.
Description: Since, during wound reepithelialization, keratinocytes migrate through the connective tissue of the provisional matrix to “wall off” portions of the wound, as well as through the adjacent stroma, it is not surprising that they are also stimulated to migrate through the matrix of SU-ECM invasion substrates by the PHSRN (SEQ ID NO: 1) sequence. […]
as §1, §2

The test system of assay [3] is keratinocytes. Description: SU-ECM invasion by keratinocytes. The following applies: serum-free SU-ECM. The class given is cell-based. The text has this: Since, during wound reepithelialization, keratinocytes migrate through the connective tissue of the provisional matrix to “wall off” portions of the wound, as well as through the adjacent stroma, it is not surprising that they are also stimulated to migrate through the matrix of SU-ECM invasion substrates by the PHSRN (SEQ ID NO: 1) sequence. […] Recruitment of fibroblasts or monocytes/macrophages whose paracrine, regulatory effects on a variety of neighboring cells are required for the early stages of wound healing is contemplated as a highly efficient and effective way to stimulate the cascade of regulatory interactions involved in wound healing because these cells will secrete the active factors or cytokines in the correct temporal sequences and spatial locations to ensure their optimal activities. Because it efficiently induces keratinocyte migration through the extracellular matrix in vitro, the PHSRN (SEQ ID NO: 1) peptide is also likely to stimulate wound reepithelialization directly. The use of the PHSRN (SEQ ID NO: 1) peptide or structurally related molecules according to the present invention is to stimulate the entry of cells such as fibroblasts and monocyte/macrophages into the provisional matrix of a wound, so that the entering cells themselves secrete the factors and cytokines active in inducing or potentiating wound healing. […]

In assay [4] the test system is normal, neonatal fibroblasts. Put plainly: Invasion of gelatin- and antibody-depleted Matrigel by fibroblasts. It is filed as cell-based. To be noted: gelatin plus antibody panned Matrigel. The protocol: Anti-fibronectin antibody-coated wells: Wells of a 24-well plate were coated with an anti-fibronectin antibody. A mouse monoclonal antibody to human fibronectin was obtained from Oncogene Science (Catalog #CP13). Each well was incubated with 1 ml of antibody at a concentration of 30 μl/ml for 2 hours at room temperature. Each well was then incubated with a solution of 3% BSA in PBS for 2 hours at room temperature. Following the two incubation periods, the wells were thoroughly washed with PBS and stored at −20° C. until use.
Depleting Matrigel of Fibronectin: Matrigel was panned over eight gelatin-coated wells (as described above in Example 2) to remove most of the fibronectin and its fragments. Thereafter, the Matrigel was placed in the antibody-coated wells to remove any remaining fragments of fibronectin which contain the cell-binding domain but not the gelatin-binding domain. The Matrigel was incubated in an ice bucket on an orbital shaker at 4° C. for 2 hours. Once the Matrigel was depleted, it was collected in Eppendorf tubes. The firbonectin-depleted Matrigel was plated on a 48-well plate (150 μl/well), sterilized under a UV light for 10 minutes and incubated at 37° C. overnight. The Matrigel formed a gel and the following day, cells were added to the wells. […]

In the case of Pro-His-Ser-Arg-Asn (PHSRN), the “induction of invasion of SU-ECM” value in assay [1] is listed as “induced to invade the SU-ECM substrate”. Moreover, the “fibroblast invasion of SU-ECM basement membranes” value in assay [2] was “induced with the PHSRN (SEQ ID NO:1) peptide to invade serum-free SU-ECM”. Besides, the keratinocyte invasion result in assay [3] is on record as “stimulate keratinocyte invasion of serum-free SU-ECM”. The “fibroblast invasiveness on depleted Matrigel” value in assay [4] is on record as “invasiveness of the fibroblasts could be induced”.

The values are drawn from patent US20060078535A1, “Anticancer compounds and methods” (The Regents of the University of Michigan, priority 2004, published 2006).
